Experimental data: PubChem BioAssay AID248 (DTP/NCI, 2004)
Where “and” joins values, the source holds several entries; their conditions need not be identical. Identical values can stand only once. Inconclusive results and toxic doses are left out. Cut-off read from the data, not from the text of the source: active = T/C of 150% or more; inactive = T/C below 125%.

Test system: L1210 leukemia ip in BDF1 mice, survival T/C
Assay: NCI In Vivo Anticancer Drug Screen. Data for tumor model L1210 Leukemia (intraperitoneal) in B6D2F1 (BDF1) mice
Details: endpoint: mean survival time, higher = longer survival
Procedure, shortened: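 Tumor was transplanted into mice, which were then dosed with test compound or vehicle alone. Survival was recorded for each group, and the treated figure was expressed relative to the control figure.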

[1] = dose: 100.0 mg/kg/injection, schedule: Q01DX001 (ip), vehicle: Klucel (hydroxypropylcellulose) (HPC)
[2] = dose: 100.0 mg/kg/injection, schedule: Q01DX009 (ip), vehicle: saline with Tween-80
[3] = dose: 100.0 mg/kg/injection, schedule: Q04DX003 (ip), vehicle: saline with Tween-80
[4] = dose: 200.0 mg/kg/injection, schedule: Q01DX001 (ip), vehicle: Klucel (hydroxypropylcellulose) (HPC)
[5] = dose: 200.0 mg/kg/injection, schedule: Q01DX009 (ip), vehicle: saline with Tween-80
[6] = dose: 200.0 mg/kg/injection, schedule: Q04DX003 (ip), vehicle: saline with Tween-80
[7] = dose: 400.0 mg/kg/injection, schedule: Q01DX001 (ip), vehicle: Klucel (hydroxypropylcellulose) (HPC)
[8] = dose: 400.0 mg/kg/injection, schedule: Q01DX009 (ip), vehicle: saline with Tween-80
[9] = dose: 400.0 mg/kg/injection, schedule: Q04DX003 (ip), vehicle: saline with Tween-80
[10] = dose: 75.0 mg/kg/injection, schedule: Q01DX001 (ip), vehicle: saline
[11] = dose: 150.0 mg/kg/injection, schedule: Q01DX001 (ip), vehicle: saline
[12] = dose: 100.0 mg/kg/injection, schedule: Q01DX001 (ip), vehicle: carboxymethylcellulose (CMC)
[13] = dose: 400.0 mg/kg/injection, schedule: Q01DX001 (ip), vehicle: carboxymethylcellulose (CMC)
[14] = dose: 100.0 mg/kg/injection, schedule: Q04DX003 (ip), vehicle: Klucel (hydroxypropylcellulose) (HPC)
[15] = dose: 200.0 mg/kg/injection, schedule: Q04DX003 (ip), vehicle: Klucel (hydroxypropylcellulose) (HPC)
[16] = dose: 400.0 mg/kg/injection, schedule: Q04DX003 (ip), vehicle: Klucel (hydroxypropylcellulose) (HPC)
[17] = dose: 100.0 mg/kg/injection, schedule: Q01DX001 (ip), vehicle: saline
[18] = dose: 200.0 mg/kg/injection, schedule: Q01DX001 (ip), vehicle: saline
[19] = dose: 100.0 mg/kg/injection, schedule: Q01DX009 (ip), vehicle: Klucel (hydroxypropylcellulose) (HPC)
[20] = dose: 200.0 mg/kg/injection, schedule: Q01DX009 (ip), vehicle: Klucel (hydroxypropylcellulose) (HPC)
[21] = dose: 400.0 mg/kg/injection, schedule: Q01DX009 (ip), vehicle: Klucel (hydroxypropylcellulose) (HPC)
[22] = dose: 400.0 mg/kg/injection, schedule: Q01DX001 (ip), vehicle: saline

Measured: T/C

COC(OC)c1nc(N)[nH]c(=O)c1Cc1ccc(Br)cc1
inactive: [1] 105 % of control | [2] 93 % of control | [3] 106 % of control | [4] 108 % of control | [5] 102 % of control | [6] 97 % of control | [7] 108 % of control | [8] 96 % of control | [9] 97 % of control

O=C(Nc1ccc(Cl)cc1C(F)(F)F)OCCOc1ccc(-c2ccccc2)cc1
inactive: [2] 98 % of control | [5] 96 % of control | [8] 96 % of control

CCN(CC)CCOCCN(CC)CC
inactive: [10] 98 % of control | [11] 102 % of control

CCC(C(O)c1ccccc1)C(O)(C(F)(F)F)C(F)(F)F (stereo unspecified)
inactive: dose: 75.0 mg/kg/injection, schedule: Q01DX009 (ip), vehicle: saline with Tween-80 100 % of control | dose: 150.0 mg/kg/injection, schedule: Q01DX009 (ip), vehicle: saline with Tween-80 106 % of control | dose: 300.0 mg/kg/injection, schedule: Q01DX009 (ip), vehicle: saline with Tween-80 103 % of control

Nc1cc(Cl)c(Cl)c(Cl)c1
inactive: dose: 88.8 mg/kg/injection, schedule: Q01DX001 (ip), vehicle: carboxymethylcellulose (CMC) 97 % of control and 100 % of control | [12] 91 % of control | dose: 133.4 mg/kg/injection, schedule: Q01DX001 (ip), vehicle: carboxymethylcellulose (CMC) 94 % of control and 100 % of control | dose: 300.0 mg/kg/injection, schedule: Q01DX001 (ip), vehicle: carboxymethylcellulose (CMC) 97 % of control and 91 % of control | [13] 91 % of control

O=C1c2ccccc2C(=O)N1C1C=CC=CC=C1
inactive: [1] 95 % of control | [14] 91 % of control | [4] 93 % of control | [15] 91 % of control | [7] 90 % of control | [16] 93 % of control

CC(C)=CCC(CC=C(C)C)c1ccncc1 (tested in a mixture with another compound)
inactive: [17] 96 % of control | [18] 98 % of control

Cc1nc(C)c(C)s1
inactive: [19] 95 % of control | [14] 102 % of control | [20] 95 % of control | [15] 100 % of control | [21] 90 % of control | [16] 104 % of control

Cc1cc2oc(=O)c(Cl)c(Cl)c2c(C)c1Cl
inactive: dose: 10.0 mg/kg/injection, schedule: Q01DX001 (ip), vehicle: saline 105 % of control | dose: 10.0 mg/kg/injection, schedule: Q01DX009 (ip), vehicle: Klucel (hydroxypropylcellulose) (HPC) 101 % of control | dose: 10.0 mg/kg/injection, schedule: Q04DX003 (ip), vehicle: Klucel (hydroxypropylcellulose) (HPC) 86 % of control | dose: 20.0 mg/kg/injection, schedule: Q01DX001 (ip), vehicle: saline 111 % of control | dose: 20.0 mg/kg/injection, schedule: Q01DX009 (ip), vehicle: Klucel (hydroxypropylcellulose) (HPC) 101 % of control | dose: 20.0 mg/kg/injection, schedule: Q04DX003 (ip), vehicle: Klucel (hydroxypropylcellulose) (HPC) 93 % of control

CCN1C(C)C1C(C)C (stereo unspecified)
inactive: dose: 25.0 mg/kg/injection, schedule: Q01DX009 (ip), vehicle: Klucel (hydroxypropylcellulose) (HPC) 105 % of control | dose: 50.0 mg/kg/injection, schedule: Q01DX009 (ip), vehicle: Klucel (hydroxypropylcellulose) (HPC) 107 % of control | [19] 109 % of control | [14] 117 % of control

S=c1nc[nH]c2c1ncn2-n1cccc1
inactive: dose: 100.0 mg/kg/injection, schedule: Q01DX001 (ip), vehicle: saline with Tween-80 97 % of control | [3] 103 % of control | dose: 200.0 mg/kg/injection, schedule: Q01DX001 (ip), vehicle: saline with Tween-80 87 % of control | [6] 98 % of control | dose: 400.0 mg/kg/injection, schedule: Q01DX001 (ip), vehicle: saline with Tween-80 92 % of control | [9] 98 % of control

Cc1ccc(C)c(NC(=O)c2ccc([N+](=O)[O-])cc2)c1
inactive: dose: 100.0 mg/kg/injection, schedule: Q04DX002 (ip), vehicle: Klucel (hydroxypropylcellulose) (HPC) 100 % of control | dose: 200.0 mg/kg/injection, schedule: Q04DX002 (ip), vehicle: Klucel (hydroxypropylcellulose) (HPC) 89 % of control | dose: 400.0 mg/kg/injection, schedule: Q04DX002 (ip), vehicle: Klucel (hydroxypropylcellulose) (HPC) 92 % of control

COCCOCC1CO1 (stereo unspecified)
inactive: dose: 100.0 mg/kg/injection, schedule: Q01DX009 (ip), vehicle: saline 100 % of control | dose: 200.0 mg/kg/injection, schedule: Q01DX009 (ip), vehicle: saline 105 % of control | dose: 400.0 mg/kg/injection, schedule: Q01DX009 (ip), vehicle: saline 100 % of control

Cc1c(Cl)cccc1NC(=O)c1ccc(Cl)cc1
inactive: [19] 87 % of control | [14] 93 % of control | [20] 91 % of control | [15] 96 % of control | [21] 97 % of control | [16] 91 % of control

OC1C2c3ccccc3C(c3ccccc32)C1O (stereo unspecified)
inactive: [10] 107 % of control | [11] 93 % of control | dose: 300.0 mg/kg/injection, schedule: Q01DX001 (ip), vehicle: saline 99 % of control

CC1COCC(C)N1CCC(=O)Nc1ccc(S(=O)(=O)c2ccc(NC(=O)CCN3C(C)COCC3C)cc2)cc1 (stereo unspecified)
inactive: [12] 107 % of control | dose: 200.0 mg/kg/injection, schedule: Q01DX001 (ip), vehicle: carboxymethylcellulose (CMC) 104 % of control | [13] 101 % of control

CCCCCCCN(CCCCCCC)CC(O)c1c2ccccc2cc2c1ccc1ccccc12 (stereo unspecified)
inactive: [19] 91 % of control | [14] 101 % of control | [20] 104 % of control | [15] 93 % of control | [16] 93 % of control

C=CC[n+]1ccccc1C(c1ccccc1)c1ccccc1
inactive: dose: 6.25 mg/kg/injection, schedule: Q01DX009 (ip), vehicle: saline with Tween-80 108 % of control | dose: 12.5 mg/kg/injection, schedule: Q01DX009 (ip), vehicle: saline with Tween-80 97 % of control | dose: 12.5 mg/kg/injection, schedule: Q04DX003 (ip), vehicle: saline with Tween-80 95 % of control | dose: 25.0 mg/kg/injection, schedule: Q01DX009 (ip), vehicle: saline with Tween-80 92 % of control | dose: 25.0 mg/kg/injection, schedule: Q04DX003 (ip), vehicle: saline with Tween-80 103 % of control

CCOC(=O)C(C)(c1[nH]c2ccccc2c1C)c1[nH]c2ccccc2c1C
inactive: dose: 50.0 mg/kg/injection, schedule: Q01DX001 (ip), vehicle: saline 103 % of control | [17] 103 % of control | [18] 95 % of control | [22] 89 % of control

COc1cc(C(O)C(=O)O)c([N+](=O)[O-])cc1OC (stereo unspecified)
inactive: [17] 96 % of control | [18] 91 % of control | [22] 91 % of control

CN(C)C(=S)[S][Sb]([c]1ccccc1)[c]1ccccc1
inactive: dose: 100.0 mg/kg/injection, schedule: Q01DX001 (ip), vehicle: other 96 % of control

CCCCC#CC(=O)OCC
inactive: dose: 100.0 mg/kg/injection, schedule: Q04DX002 (ip), vehicle: saline 97 % of control | dose: 200.0 mg/kg/injection, schedule: Q04DX002 (ip), vehicle: saline 97 % of control | dose: 400.0 mg/kg/injection, schedule: Q04DX002 (ip), vehicle: saline 112 % of control
